Test results reported in patent US20260062420A1, “NOVEL DPP1 INHIBITORS AND USES THEREOF” (Insmed Incorporated, priority 2022, published 2026).
Like-named read-outs stand apart in the source and are kept apart here.

Columns and labels:
DPP1 in HL-60 cells = DPP1 in HL-60 cells (Homo sapiens (Human), UniProt P53634); test: DPP1 Cell IC50 Assay (HL-60 cells, H-Gly-Phe-AFC substrate); format: cell-based
Procedure: HL-60 cells (ATCC; Manassas, VA) were maintained in RPMI-1640 supplemented with 20% heat-inactivated FBS and 1× Antibiotic Antimycotic (Cytiva; Marlborough, MA). Media was changed every three to four days and cells were not allowed to exceed 1×10^6 cells per mL. Prior to assay, cells were collected by centrifugation at 500 rcf for 3 minutes, resuspended in PBS and counted. Cells were diluted in PBS to a concentration of 5×10^5 live cells per mL and transferred to black 96-well plates for assay, 60 μL per well. Test articles were diluted in PBS plus 0.5% DMSO, and 20 μL was added to each assay well. Compound was allowed to pre-incubate with cells with gentle shaking at 100 rpm for 60 minutes at 37° C. in a cell culture incubator maintained at 5% CO2, after which 20 μL of 500 μM H-Gly-Phe-AFC substrate (MP Biomedicals; Solon, OH) was added to each well. Plates were returned to the incubator with shaking at 100 rpm for 30 minutes, after which fluorescence was measured at Excitation/Emission 400/505 nm. % Inhibition was calculated from RFU values compared to control cell wells that received only PBS plus 0.5% DMSO. IC50 values for each compound were calculated via the XLFit (IDBS Version 5.3.1.3) Add-On to Microsoft Excel using the four parameter fit equation y=(A+((B−A)/(1+((C/x)^D)))), which appears as equation number 205 (4 Parameter Logistic Model or Sigmoidal Dose-Response Model) in XLFit.

active mouse DPP1 enzyme = active mouse DPP1 enzyme (Mus musculus (Mouse), UniProt P97821); test: Mouse DPP1 Enzyme IC50 Assay; format: biochemical; conditions: mouse DPP1 enzyme; Table 16; read-out: IC50, nM; Mouse
Procedure: Test articles were applied to active mouse DPP1 enzyme (R&D Systems; Minneapolis, MN) in Assay Buffer (50 mM MES pH 5.5, 50 mM NaCl, 5 mM DTT) in a total reaction volume of 125 μL. 25 μL of compound in Assay Buffer plus 5% DMSO was first added to 50 μL of active mouse DPP1 enzyme at a concentration of 62.5 pg/μL and allowed to pre-incubate for 10 minutes at 37° C. after which 50 μL of 1000 μM H-Gly-Arg-AMC substrate (Bachem; St. Torrance, CA) was added, giving final substrate concentration of 400 μM and a final DMSO concentration of 1%. Substrate cleavage was measured for 90 minutes at 37° C., with fluorescence at Excitation/Emission 350/450 nm measured every 5 minutes. DPP1 concentration was interpolated based on its activity relative to a standard curve of recombinant active mouse DPP1 enzyme. IC50 values for each compound were calculated via the XLFit (IDBS Version 5.3.1.3) Add-On to Microsoft Excel using the four parameter fit equation y=(A+((B−A)/(1+((C/x)^D)))), which appears as equation number 205 (4 Parameter Logistic Model or Sigmoidal Dose-Response Model) in XLFit. Default constraints were used for each Parameter. IC50 was defined as the compound concentration at which 50% of enzyme activity was inhibited when compared to the no-compound control.

[1] = biological target: Recombinant human DPP1 enzyme (Homo sapiens (Human), UniProt P53634); test: Human DPP1 Enzyme IC50 Assay; format: biochemical; conditions: human DPP1 enzyme; Table 16; read-out: IC50, nM; Human
Procedure: Recombinant human DPP1 enzyme (R&D Systems; Minneapolis, MN) was first proteolytically processed into its mature form using recombinant human cathepsin L (R&D Systems) in a buffer consisting of 20 mM citric acid pH 4.5, 150 mM NaCl, 1 mM EDTA and 10 mM DTT. Test articles were applied to activated human DPP1 enzyme in Assay Buffer (25 mM MES pH 6.0, 50 mM NaCl, 5 mM DTT) in a total reaction volume of 125 μL. 25 μL of compound in Assay Buffer plus 5% DMSO was first added to 50 μL of activated human DPP1 enzyme at a concentration of 1 ng/μL and allowed to pre-incubate for 10 minutes at 37° C. after which 50 μL of 1000 μM H-Gly-Arg-AMC substrate (Bachem; St. Torrance, CA) was added, giving final substrate concentration of 400 μM and a final DMSO concentration of 1%. Substrate cleavage was measured for 90 minutes at 37° C., with fluorescence at Excitation/Emission 350/450 nm measured every 5 minutes. DPP1 concentration was interpolated based on its activity relative to a standard curve of activated human recombinant DPP1 enzyme. IC50 values for each compound were calculated via the XLFit (IDBS Version 5.3.1.3) Add-On to Microsoft Excel using the four parameter fit equation y={A+[(B−A)]/[1+((C/x)^D)]}, which appears as equation number 205 (4 Parameter Logistic Model or Sigmoidal Dose-Response Model) in XLFit. Default constraints were used for each Parameter.

[2] = H-Gly-Phe-AFC substrate, Table 15, read-out: Cell IC50

active mouse DPP1 enzyme, sequence (P97821 25-134): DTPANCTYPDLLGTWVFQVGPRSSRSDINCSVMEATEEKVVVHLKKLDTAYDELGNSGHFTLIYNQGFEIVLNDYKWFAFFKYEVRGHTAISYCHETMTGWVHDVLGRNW
active mouse DPP1 enzyme, sequence (P97821 231-393): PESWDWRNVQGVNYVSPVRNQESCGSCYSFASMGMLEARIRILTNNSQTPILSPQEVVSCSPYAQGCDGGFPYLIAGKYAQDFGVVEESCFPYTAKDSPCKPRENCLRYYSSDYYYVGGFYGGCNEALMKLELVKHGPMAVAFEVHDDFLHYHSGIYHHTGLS
active mouse DPP1 enzyme, sequence (P97821 394-462): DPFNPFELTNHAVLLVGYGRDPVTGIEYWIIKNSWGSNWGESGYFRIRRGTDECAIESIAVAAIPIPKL
DPP1 in HL-60 cells, sequence (P53634 25-134): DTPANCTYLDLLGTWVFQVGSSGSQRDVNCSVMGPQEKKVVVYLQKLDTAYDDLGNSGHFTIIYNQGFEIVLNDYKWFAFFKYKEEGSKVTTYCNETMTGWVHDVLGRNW
DPP1 in HL-60 cells, sequence (P53634 231-394): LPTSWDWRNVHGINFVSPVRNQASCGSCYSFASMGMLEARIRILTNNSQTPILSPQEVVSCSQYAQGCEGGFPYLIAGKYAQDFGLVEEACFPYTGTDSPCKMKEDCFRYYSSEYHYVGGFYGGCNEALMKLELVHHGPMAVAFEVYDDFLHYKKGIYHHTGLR
DPP1 in HL-60 cells, sequence (P53634 395-463): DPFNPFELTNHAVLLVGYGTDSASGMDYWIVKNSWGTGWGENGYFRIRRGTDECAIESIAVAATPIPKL
Recombinant human DPP1 enzyme, sequence (P53634 25-134): as the sequence (P53634 25-134) above
Recombinant human DPP1 enzyme, sequence (P53634 231-394): as the sequence (P53634 231-394) above
Recombinant human DPP1 enzyme, sequence (P53634 395-463): as the sequence (P53634 395-463) above

IC50 (DPP1 in HL-60 cells; Table 16, read-out: Cell Assay) | IC50 (active mouse DPP1 enzyme) | IC50 [1] | IC50 (DPP1 in HL-60 cells; [2]) | Compound
10.1 nM | 218 nM | 186 nM |  | Cn1c(=O)oc2ccc(-c3ccc(C[C@@H](C#N)NC(=O)[C@@H]4CNCCCO4)cc3F)cc21
878 nM | 438 nM | 784 nM |  | Cn1c(=O)oc2ccc(-c3ccc(C[C@@H](C#N)NC(=O)C4CC5OCCC5N4)cc3)cc21 (some centres unmarked)
875 nM | 246 nM | 480 nM |  | N#Cc1ccc(-c2ccc(C[C@@H](C#N)NC(=O)[C@@H]3C[C@@H]4COC[C@@H]4N3)cc2)cc1
418 nM |  | 416 nM |  | [2H]C([2H])([2H])n1c(=O)oc2ccc(-c3ccc(C[C@@H](C#N)NC(=O)C4CNC4)c(F)c3)cc21
330 nM | 306 nM | 537 nM |  | Cn1c(=O)oc2ccc(-c3ccc(C[C@@H](C#N)NC(=O)[C@@H]4COCCN4)cc3)cc21
3 ± 0.4 nM | 6.5 nM | 10.1 nM |  | N#Cc1ccc(-c2ccc(C[C@@H](C#N)NC(=O)[C@@H]3C[C@@H]4CCC[C@@H]4N3)c(F)c2)cc1
54.7 nM | 785 nM | 360 nM |  | Cn1c(=O)oc2ccc(-c3ccc(C[C@@H](C#N)NC(=O)C4CNC(C)(C)CO4)cc3)cc21 (some centres unmarked)
508 nM | 647 nM | 432 nM |  | Cn1c(=O)oc2ccc(-c3ccc(CC(C#N)NC(=O)C4CNC4)c(F)c3)cc21 (centres unmarked)
462 nM | 136 nM | 311 nM |  | Cn1c(=O)oc2ccc(-c3ccc(C[C@@H](C#N)NC(=O)[C@@H]4C[C@@H]5COC[C@@H]5N4)cc3)cc21 [drawing 1208]
3.6 nM | 31 nM | 31.4 nM |  | N#Cc1ccc(-c2ccc(C[C@@H](C#N)NC(=O)[C@@H]3CNCCCO3)c(F)c2)cc1 [drawing 1196]
 |  |  | 3.7 nM | Cn1c(=O)oc2ccc(-c3ccc(C[C@@H](C#N)NC(=O)[C@@H]4C[C@H]5C[C@H]5N4)cc3)cc21 [IWD-002, (1R,3S,5R)—N—((S)-1-cyano-2-(4-(3-methyl-2-oxo-2,3-dihydrobenzo[d]oxazol-5-yl)phenyl)ethyl)-2-azabicyclo[3.1.0]hexane-3-carboxamide]
60.4 nM | 2080 nM | 828 nM |  | Cn1c(=O)oc2ccc(-c3ccc(C[C@@H](C#N)NC(=O)C4CNCC45CCC5)cc3)cc21 (some centres unmarked) [drawing 1188]
26 nM | 131 nM | 189 nM |  | Cn1c(=O)oc2ccc(-c3ccc(C[C@@H](C#N)NC(=O)[C@@H]4C[C@@H]5C[C@@H]5N4)cc3)cc21
> 1000 nM | 226 nM | 497 nM |  | Cn1c(=O)oc2ccc(-c3ccc(C[C@@H](C#N)NC(=O)[C@H]4C[C@H]5OCC[C@H]5N4)cc3)cc21
40.1 nM | 815 nM | 1100 nM |  | Cn1c(=O)oc2ccc(-c3ccc(C[C@@H](C#N)NC(=O)CC4(N)CCCCC4)cc3)cc21
1.9 nM |  | 7.6 nM |  | Cn1c(=O)oc2ccc(-c3ccc(C[C@@H](C#N)NC(=O)[C@@H]4C[C@@H]5CCC[C@@H]5N4)c(F)c3)cc21 [drawing 1227]
150 nM | 41.2 nM | 179 nM |  | Cn1c(=O)oc2ccc(-c3ccc(C[C@@H](C#N)NC(=O)[C@@H]4C[C@@H]5COC[C@@H]5N4)c(F)c3)cc21
59.9 nM |  | 428 nM |  | N#C[C@H](Cc1ccc(-c2ccc3c(c2)C(=O)NC3)cc1)NC(=O)[C@@H]1CNCCCO1

IC50 (DPP1 in HL-60 cells; Table 16, read-out: Cell Assay) | IC50 (active mouse DPP1 enzyme) | IC50 [1] | IC50 (DPP1 in HL-60 cells; [2]) | Compound
1.7 nM | 3.4 nM | 5.9 nM |  | Cn1c(=O)oc2ccc(-c3ccc(C[C@@H](C#N)NC(=O)[C@@H]4C[C@@H]5CCC[C@@H]5N4)c(F)c3)cc21 [drawing 1220]
500 nM |  | 426 nM |  | [2H]C([2H])([2H])n1c(=O)oc2ccc(-c3ccc(C[C@@H](C#N)NC(=O)[C@@H]4C[C@@H]5COC[C@@H]5N4)cc3)cc21
3.8 nM |  | 29.6 nM |  | Cn1c(=O)oc2ccc(-c3cc(F)c(C[C@@H](C#N)NC(=O)[C@@H]4CNCCCO4)cc3F)cc21
146 nM |  | 102 nM |  | [2H]C([2H])([2H])n1c(=O)oc2ccc(-c3ccc(C[C@@H](C#N)NC(=O)[C@@H]4C[C@@H]5COC[C@@H]5N4)c(F)c3)cc21
 |  |  | 0.34 nM | CC[C@@H](/C=C/C(=O)N1CCc2ccccc21)NC(=O)C1(N)CCOCC1 [GSK-2793660, reference compound]
4.9 nM |  | 42.2 nM |  | Cn1c(=O)oc2ccc(-c3cc(F)c(C[C@@H](C#N)NC(=O)[C@@H]4CNCCCO4)c(F)c3)cc21
 | > 5000 nM | > 5000 nM |  | Cn1c(=O)oc2ccc(-c3ccc(C[C@@H](C#N)NC(=O)C4CCC(N)C4)cc3)cc21 (some centres unmarked)
 | > 5000 nM | > 5000 nM |  | Cn1c(=O)oc2ccc(-c3ccc(C[C@@H](C#N)NC(=O)C4CCNC4)cc3)cc21 (some centres unmarked)
 | > 5000 nM | > 5000 nM |  | C=C1Oc2ccc(-c3ccc(C[C@@H](C#N)NC(=O)CC4(N)CCS(=O)(=O)C4)cc3)cc2N1C (some centres unmarked)
3.1 nM | 8.2 nM | 17.3 nM |  | Cn1c(=O)oc2ccc(-c3ccc(C[C@@H](C#N)NC(=O)[C@@H]4C[C@@H]5CCC[C@@H]5N4)cc3)cc21
 | > 5000 nM | > 5000 nM |  | Cn1c(=O)oc2ccc(-c3ccc(C[C@@H](C#N)NC(=O)C4=CS(=O)(=O)CCNC4)cc3)cc21
 | > 5000 nM | > 5000 nM |  | N#Cc1ccc(-c2ccc(C[C@@H](C#N)NC(=O)[C@H]3C[C@@H]4COC[C@@H]4N3)cc2)cc1
 | 247 nM | 589 nM |  | Cn1c(=O)oc2ccc(-c3ccc(C[C@@H](C#N)NC(=O)[C@@H]4C[C@@H]5COC[C@@H]5N4)s3)cc21
 | > 5000 nM | > 5000 nM |  | Cn1c(=O)oc2ccc(-c3ccc(C[C@@H](C#N)NC(=O)C4C=CCNC4)cc3)cc21 (some centres unmarked)
 | 92.4 nM | 140 nM |  | N#Cc1ccc(-c2ccc(C[C@@H](C#N)NC(=O)[C@@H]3C[C@H]4C[C@H]4N3)cc2)cc1
4.2 nM | 36.7 nM | 49.5 nM |  | N#Cc1ccc(-c2ccc(C[C@@H](C#N)NC(=O)[C@@H]3CNCCCO3)c(F)c2)cc1 [drawing 1197]
3.7 nM | 24 nM | 41.1 nM |  | Cn1c(=O)oc2ccc(-c3ccc(C[C@@H](C#N)NC(=O)[C@@H]4C[C@H]5C[C@H]5N4)cc3)cc21 [drawing 1151]
